The source of these data is US7371721B2, “Use of GLP-2 and related compounds for the treatment, prevention, diagnosis, and prognosis of bone-related disorders and calcium homeostasis related syndromes” (priority 2000, dated 2008).

The term Tmax denotes the time at which the peak concentration occurs.

In data set [1] the test system is ovariectomized induced bone loss. Description: Ovariectomized induced bone loss in aged rats, 6 week study. Conditions: 6 weeks, in comparison to the untreated controls. The format is in vivo, female Sprague Dawley rats. As to the method:
The following is a protocol suitable to test whether GLP-2A at 250 μg/kg s.c. twice daily can inhibit ovariectomized induced bone loss in aged rats.
• Test articles: GLP-2 analogue (Gly2)GLP-2: […]OH. • Vehicle: 0.5% gelatin/PBS (degassed) Gelatin A: Cat. No. 325910, batch no. 273622 (Unikem, Copenhagen, Denmark). PBS: Dubecco's Phosphate buffered saline (BioWhitaker cat.no.BE17-512F) • Positive control: 17β-estradiol pellet 0.5 mg/60 days release implanted subcutaneous (SE-121 Innovative Research of America) A dose of 250 μg/kg is administered by subcutaneous injections twice daily (10-12 hours apart). The injection site will vary according to the injection scheme. The dose is calculated as follow: the weight ofthe rat in kg=the dose in ml; e.g. 0.301kg=0.30 ml Experimental System: The study is performed in 50 female Sprague Dawley rats in 4 groups each of 12 or 13 rats. Surgery: • The rats are anaesthetized with Hypnorm-Domicum (1 part Hypnorm+1 part Dormicum+2 part sterile dI water. The rats are given 0.15 ml/100 g body weight). Ovariectomy (OVX) or sham operations are performed via a midline incision in the back of the rats. […] The wet weight and length of the small intestine and the colon will be recorded. […] Bones are assessed by PQCT, trabecular strength and histomorphologic analysis.

For data set [2], the system named is fractures in postmenopausal osteoporosis. Conditions: cited from earlier work.
For data set [3] the following is noted: in vivo; cited from earlier work.
The subject of data set [4] is GLP-1. Put plainly: Plasma GLP-1 level (RIA), in Examples 1 and 2 as marker for GLP-2. In kind it is in vivo, human. Conditions: after 2 hours, compared to the baseline of 100% at T0; oral 75 g fructose. The protocol:
(§1) In these Examples, hematology and serum chemistry including glucose were measured using an auto analyzer (Vitros). Serum […] was measured by IRMA (Coat-A-Count®, DPC, Los Angeles, Calif.). Serum C-telopeptide fragments of collagen type I degradation (S-CTX) were measured by ELISA, Serum CrossLaps™ assay (Osteometer BioTech A/S—Denmark). Serum osteocalcin was determined by ELISA, an assay which determines the N-terminal mid segment of the molecule. Serum insulin and c-peptide were both assessed by RIA (Coat-A-Count® for insulin and Double Antibody C-peptide for c-peptide both DPC, Los Angeles, Calif.). Total GIP was measured using the C-terminally directed antiserum R65, which reacts with the intact GIP (1-42) and the N-terminally truncated metabolite, GIP (3-42) (Krarup T, Holst J J 1984 The heterogeneity of gastric inhibitory polypeptide in porcine and human gastrointestinal mucosa evaluated with five different antisera. Regul Pept 9:35-46. ). GLP-2 was measured with a N-terminal specific antiserum code no. 92160, measuring only GLP-2 with an intact N-terminus. GLP-1 in plasma samples was measured using a RIA assay specific for the C-terminus of the GLP-1 molecule, using standards of synthetic GLP-1 (7-36) amide and antiserum no. […] GLP-1 is measured in Example 1 as a marker for the effect of the tested materials on GLP-2 levels. […]

Data set [5] deals with GIP. Description: Total GIP level (antiserum R65). In kind it is in vivo, human. Conditions: oral 75 g fructose. The protocol: as §1
Data set [6] deals with S-CTX (bone resorption). Put plainly: Serum S-CTX (Serum CrossLaps ELISA) as marker of bone resorption in human subjects. In kind it is in vivo. As to the method: as §1
Background: ELISA stands for enzyme-linked immunosorbent assay.

The nature of data set [7]: clinical. Conditions: both sexes, human, in vivo, sc. As to the method: as §1

No end group written: not given here.

Turning to “His-Gly-Asp-Gly-Ser-Phe-Ser-Asp-Glu-Met-Asn-Thr-Ile-Leu-Asp-Asn-Leu-Ala-Ala-Arg-Asp-Phe-Ile-Asn-Trp-Leu-Ile-Gln-Thr-Lys-Ile-Thr-Asp-OH (HGDGSFSDEMNTILDNLAARDFINWLIQTKITD-OH) [(Gly2)GLP-2]”, the “protection against bone density loss following the OVX procedure” value in data set [1] is on record as “protected against bone density loss”.
In the case of `CC[C@H](C)[C@H](NC(=O)[C@H](CCC(=O)O)NC(=O)[C@H](CO)NC(=O)[C@@H](NC(=O)[C@@H](N)CO)C(C)C)C(=O)N[C@@H](CCC(N)=O)C(=O)N[C@@H](CC(C)C)C(=O)N[C@@H](CCSC)C(=O)N[C@@H](Cc1cnc[nH]1)C(=O)N[C@@H](CC(N)=O)C(=O)N[C@@H](CC(C)C)C(=O)NCC(=O)N[C@@H](CCCCN)C(=O)N[C@@H](Cc1cnc[nH]1)C(=O)N[C@@H](CC(C)C)C(=O)N[C@@H](CC(N)=O)C(=O)N[C@@H](CO)C(=O)N[C@@H](CCSC)C(=O)N[C@@H](CCC(=O)O)C(=O)N[C@@H](CCCN=C(N)N)C(=O)N[C@H](C(=O)N[C@@H](CCC(=O)O)C(=O)N[C@@H](Cc1c[nH]c2ccccc12)C(=O)N[C@@H](CC(C)C)C(=O)N[C@@H](CCCN=C(N)N)C(=O)N[C@@H](CCCCN)C(=O)N[C@@H](CCCCN)C(=O)N[C@@H](CC(C)C)C(=O)N[C@@H](CCC(N)=O)C(=O)N[C@@H](CC(=O)O)C(=O)N[C@H](C(=O)N[C@@H](Cc1cnc[nH]1)C(=O)N[C@@H](CC(N)=O)C(=O)N[C@@H](Cc1ccccc1)C(=O)O)C(C)C)C(C)C` [teriparatide], in data set [2] (by the end of the 21-month treatment period), the “effect on new non-vertebral fractures” value is reported as −35%. Moreover, the “decrease in occurrence of new vertebral fractures” value in data set [2] (subcutaneous daily dose 20 μg, Caucasian women (70 years of age)) is reported as 65%. In data set [2] (subcutaneous daily dose 20 μg), the “reduction of moderate-to-severe fractures” value is 90% and the “reduction of multiple vertebral fractures” value is listed as 77%.
Regarding `C[C@]12CC[C@@H]3c4ccc(O)cc4CC[C@H]3[C@@H]1CC[C@@H]2O` [17β-estradiol], the “protection against bone density loss following the OVX procedure” value in data set [1] is reported as “protected against bone density loss”.
As to “PTH: parathyroid hormone treatment (teriparatide and related compounds) discussed in the cited studies”, the “hypercalcemia and related symptoms, share of treated individuals” value in data set [3] is reported as “about 11%”.
With `O=C(CO)[C@@H](O)[C@H](O)[C@H](O)CO` [Oral fructose, fructose], in data set [4], the “level of GLP-2 (measured as GLP-1)” value amounted to 220%. The “level of GIP” value in data set [5] is given as “almost maintained at baseline”. In addition, the “reduction in S-CTX” value in data set [6] (after 2 hours, oral 75 g fructose in 300 ml water, fasted healthy women and men) is recorded as 36%.
As for `CC[C@H](C)[C@H](NC(=O)[C@H](Cc1ccccc1)NC(=O)[C@H](CC(=O)O)NC(=O)[C@H](CCCNC(=N)N)NC(=O)[C@H](C)NC(=O)[C@H](C)NC(=O)[C@H](CC(C)C)NC(=O)[C@H](CC(N)=O)NC(=O)[C@H](CC(=O)O)NC(=O)[C@H](CC(C)C)NC(=O)[C@@H](NC(=O)[C@@H](NC(=O)[C@H](CC(N)=O)NC(=O)[C@H](CCSC)NC(=O)[C@H](CCC(=O)O)NC(=O)[C@H](CC(=O)O)NC(=O)[C@H](CO)NC(=O)[C@H](Cc1ccccc1)NC(=O)[C@H](CO)NC(=O)CNC(=O)[C@H](CC(=O)O)NC(=O)[C@H](C)NC(=O)[C@@H](N)Cc1c[nH]cn1)[C@@H](C)O)[C@@H](C)CC)C(=O)N[C@@H](CC(N)=O)C(=O)N[C@@H](Cc1c[nH]c2ccccc12)C(=O)N[C@@H](CC(C)C)C(=O)N[C@H](C(=O)N[C@@H](CCC(N)=O)C(=O)N[C@H](C(=O)N[C@@H](CCCCN)C(=O)N[C@H](C(=O)N[C@H](C(=O)N[C@@H](CC(=O)O)C(=O)O)[C@@H](C)O)[C@@H](C)CC)[C@@H](C)O)[C@@H](C)CC` [GLP-2], the Tmax in data set [7] amounted to 1 h. Further, the “reduction in S-CTX” value in data set [6] (after 3 hours, subcutaneous bolus injection of 400 μg, healthy women and men) turned out to be 35%.
